From ChEMBL document CHEMBL1201862, “PubChem BioAssay data set” (2004)
The source made the active and inactive calls.

Columns and labels:
Caspase-3 = molecular target: T1, Caspase-3 (Homo sapiens, UniProt P42574); assay type: functional;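 further: Dose-response selectivity test against caspase-3 for candidate inhibitors of sentrin-specific proteases (SENPs)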
T1 sequence (P42574 whole entry): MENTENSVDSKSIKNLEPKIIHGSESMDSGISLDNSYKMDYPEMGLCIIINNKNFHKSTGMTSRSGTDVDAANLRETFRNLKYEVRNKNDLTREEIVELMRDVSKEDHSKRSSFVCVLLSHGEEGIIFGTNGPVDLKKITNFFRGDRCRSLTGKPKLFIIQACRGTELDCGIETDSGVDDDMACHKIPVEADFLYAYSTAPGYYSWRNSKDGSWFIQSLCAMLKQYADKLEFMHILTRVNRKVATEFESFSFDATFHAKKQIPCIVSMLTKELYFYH

[1] = molecular target: T2, Sentrin-specific protease 7 (Homo sapiens, UniProt Q9BQF6); assay type: functional;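 further: Luminescence-based dose-response confirmation of ultra-high-throughput screening hits, measuring inhibition of SENP7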
T2 sequence (Q9BQF6 whole entry): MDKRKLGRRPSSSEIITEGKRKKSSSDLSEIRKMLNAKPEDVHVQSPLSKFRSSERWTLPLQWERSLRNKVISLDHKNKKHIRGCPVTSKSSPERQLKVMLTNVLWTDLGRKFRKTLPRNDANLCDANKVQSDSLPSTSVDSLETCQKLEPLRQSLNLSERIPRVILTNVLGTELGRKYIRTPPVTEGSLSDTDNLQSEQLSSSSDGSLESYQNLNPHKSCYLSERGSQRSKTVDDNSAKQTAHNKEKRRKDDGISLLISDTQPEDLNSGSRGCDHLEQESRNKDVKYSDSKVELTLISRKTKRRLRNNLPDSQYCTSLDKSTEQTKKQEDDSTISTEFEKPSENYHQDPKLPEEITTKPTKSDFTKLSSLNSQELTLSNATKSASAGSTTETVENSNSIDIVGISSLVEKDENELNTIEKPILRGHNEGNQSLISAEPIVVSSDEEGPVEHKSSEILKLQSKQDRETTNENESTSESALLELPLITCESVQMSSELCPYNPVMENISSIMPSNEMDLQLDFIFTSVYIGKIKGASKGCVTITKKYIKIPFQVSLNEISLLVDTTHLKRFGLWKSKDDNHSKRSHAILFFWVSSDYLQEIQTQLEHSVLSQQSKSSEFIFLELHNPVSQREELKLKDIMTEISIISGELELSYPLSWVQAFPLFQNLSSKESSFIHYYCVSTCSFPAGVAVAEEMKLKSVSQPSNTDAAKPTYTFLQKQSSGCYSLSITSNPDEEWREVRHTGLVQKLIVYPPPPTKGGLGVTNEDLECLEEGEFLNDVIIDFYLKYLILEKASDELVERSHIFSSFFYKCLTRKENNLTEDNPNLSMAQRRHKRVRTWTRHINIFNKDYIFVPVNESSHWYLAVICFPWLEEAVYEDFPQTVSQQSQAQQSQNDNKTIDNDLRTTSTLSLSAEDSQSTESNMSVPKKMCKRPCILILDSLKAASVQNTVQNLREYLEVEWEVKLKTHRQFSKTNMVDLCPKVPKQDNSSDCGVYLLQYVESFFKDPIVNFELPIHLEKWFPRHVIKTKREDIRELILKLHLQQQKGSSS

[2] = molecular target: T3, Sentrin-specific protease 6 (Homo sapiens, UniProt Q9GZR1); assay type: functional;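 further: Luminescence-based dose-response confirmatory assay of SENP6 inhibition, following up an ultra-high-throughput screen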
T3 sequence (Q9GZR1 whole entry): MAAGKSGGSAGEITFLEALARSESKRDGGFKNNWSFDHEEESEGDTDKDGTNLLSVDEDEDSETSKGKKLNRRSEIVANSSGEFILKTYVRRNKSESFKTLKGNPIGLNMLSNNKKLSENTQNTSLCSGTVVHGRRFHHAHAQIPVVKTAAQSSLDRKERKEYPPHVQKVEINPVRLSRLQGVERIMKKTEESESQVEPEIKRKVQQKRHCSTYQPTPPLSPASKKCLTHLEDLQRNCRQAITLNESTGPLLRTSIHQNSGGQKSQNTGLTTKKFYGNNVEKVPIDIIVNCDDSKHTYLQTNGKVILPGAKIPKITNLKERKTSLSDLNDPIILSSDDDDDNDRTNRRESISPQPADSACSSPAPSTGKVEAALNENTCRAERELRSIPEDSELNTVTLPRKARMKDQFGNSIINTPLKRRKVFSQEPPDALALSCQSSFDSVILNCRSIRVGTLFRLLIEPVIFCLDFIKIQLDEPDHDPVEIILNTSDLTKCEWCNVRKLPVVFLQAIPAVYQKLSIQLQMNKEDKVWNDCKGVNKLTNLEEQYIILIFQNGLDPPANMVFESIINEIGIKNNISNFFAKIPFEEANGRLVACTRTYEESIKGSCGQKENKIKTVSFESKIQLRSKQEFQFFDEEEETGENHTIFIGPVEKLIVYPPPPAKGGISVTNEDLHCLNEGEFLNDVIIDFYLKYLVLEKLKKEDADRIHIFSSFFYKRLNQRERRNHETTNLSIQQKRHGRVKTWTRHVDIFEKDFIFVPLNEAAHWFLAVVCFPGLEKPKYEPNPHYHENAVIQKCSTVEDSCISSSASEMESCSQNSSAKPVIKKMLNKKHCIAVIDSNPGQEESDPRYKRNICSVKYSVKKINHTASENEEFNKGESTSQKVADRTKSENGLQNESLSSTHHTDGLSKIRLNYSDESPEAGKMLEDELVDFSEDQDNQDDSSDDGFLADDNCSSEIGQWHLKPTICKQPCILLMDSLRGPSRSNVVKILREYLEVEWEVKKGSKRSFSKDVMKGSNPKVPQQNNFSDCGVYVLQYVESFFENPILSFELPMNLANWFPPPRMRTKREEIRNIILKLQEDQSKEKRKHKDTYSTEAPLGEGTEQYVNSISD

[3] = molecular target: T4, Sentrin-specific protease 8 (Homo sapiens, UniProt Q96LD8); assay type: functional;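 further: luminescence read-out of SENP8 inhibition, dose-response confirmation following an ultra-high-throughput screen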
T4 sequence (Q96LD8 whole entry): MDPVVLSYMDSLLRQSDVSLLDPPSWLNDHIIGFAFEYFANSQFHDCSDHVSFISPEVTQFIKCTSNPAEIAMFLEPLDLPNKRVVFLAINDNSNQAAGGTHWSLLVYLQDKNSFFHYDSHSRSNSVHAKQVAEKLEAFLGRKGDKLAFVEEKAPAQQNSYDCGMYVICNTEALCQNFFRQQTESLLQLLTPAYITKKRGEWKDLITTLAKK

Cytochrome P450 3A4 = Cytochrome P450 3A4 (Homo sapiens, UniProt P08684);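 further: CYP3A4 tested as one member of a cytochrome P450 panel screen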
Chain of Cytochrome P450 3A4 (P08684 whole entry): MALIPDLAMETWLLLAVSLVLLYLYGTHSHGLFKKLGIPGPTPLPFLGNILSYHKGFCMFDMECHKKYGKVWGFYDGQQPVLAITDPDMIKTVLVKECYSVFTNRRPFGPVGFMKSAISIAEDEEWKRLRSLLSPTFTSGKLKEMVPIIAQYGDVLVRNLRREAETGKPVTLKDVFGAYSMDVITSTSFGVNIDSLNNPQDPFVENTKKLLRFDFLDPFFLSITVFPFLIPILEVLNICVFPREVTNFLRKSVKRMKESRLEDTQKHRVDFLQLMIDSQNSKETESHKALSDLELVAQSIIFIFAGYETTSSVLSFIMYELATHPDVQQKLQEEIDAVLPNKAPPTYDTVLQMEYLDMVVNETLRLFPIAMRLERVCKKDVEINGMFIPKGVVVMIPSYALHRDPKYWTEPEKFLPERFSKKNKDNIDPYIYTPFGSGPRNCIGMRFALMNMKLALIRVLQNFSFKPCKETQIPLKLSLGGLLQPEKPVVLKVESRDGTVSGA

[4] = molecular target: T5, Short transient receptor potential channel 4 (Mus musculus, UniProt Q9QUQ5); assay: mouse TRPC4 channel activators, dose response, cell-based, HEK293 TRPC4/mu-opioid, Fluo-4 calcium (AID 434937); assay type: functional
T5 sequence (Q9QUQ5 whole entry): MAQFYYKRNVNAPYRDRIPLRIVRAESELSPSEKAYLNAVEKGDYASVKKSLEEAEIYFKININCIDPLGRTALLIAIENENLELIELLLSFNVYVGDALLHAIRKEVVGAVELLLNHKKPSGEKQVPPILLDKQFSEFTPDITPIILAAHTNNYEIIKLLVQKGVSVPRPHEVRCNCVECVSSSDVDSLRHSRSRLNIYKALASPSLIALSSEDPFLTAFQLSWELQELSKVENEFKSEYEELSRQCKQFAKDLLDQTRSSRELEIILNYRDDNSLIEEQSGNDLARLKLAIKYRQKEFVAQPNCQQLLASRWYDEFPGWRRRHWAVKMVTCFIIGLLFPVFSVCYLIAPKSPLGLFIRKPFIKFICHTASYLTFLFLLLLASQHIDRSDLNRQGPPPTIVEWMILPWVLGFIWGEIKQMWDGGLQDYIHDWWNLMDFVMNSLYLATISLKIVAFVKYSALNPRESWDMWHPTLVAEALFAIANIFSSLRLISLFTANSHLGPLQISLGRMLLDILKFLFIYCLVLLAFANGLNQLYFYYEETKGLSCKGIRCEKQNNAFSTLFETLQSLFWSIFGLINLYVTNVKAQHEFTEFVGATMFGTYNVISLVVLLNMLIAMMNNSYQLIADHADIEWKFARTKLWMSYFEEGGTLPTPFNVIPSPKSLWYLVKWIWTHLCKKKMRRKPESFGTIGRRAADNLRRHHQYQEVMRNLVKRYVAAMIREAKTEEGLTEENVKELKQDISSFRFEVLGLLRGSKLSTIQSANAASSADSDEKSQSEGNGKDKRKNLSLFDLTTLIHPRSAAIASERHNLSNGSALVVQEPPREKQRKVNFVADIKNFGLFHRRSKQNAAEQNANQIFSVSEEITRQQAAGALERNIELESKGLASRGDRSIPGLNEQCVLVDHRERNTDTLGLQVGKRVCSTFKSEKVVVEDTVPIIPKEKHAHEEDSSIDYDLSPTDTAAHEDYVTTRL

[5] = molecular target: Delta-type opioid receptor (Homo sapiens, UniProt P41143); assay: Counterscreen for agonists of heterodimerization of the mu 1 (OPRM1) and delta 1 (OPRD1) opioid receptors: Luminescence-based cell-based high throughput dose response assay to identify agonists of OPRD1 homodimerization. [Related pubchem assays (depositor defined):AID504326, AID504355, AID504692, AID504904, AID504905]; assay type: functional
Chain of Delta-type opioid receptor (P41143 whole entry): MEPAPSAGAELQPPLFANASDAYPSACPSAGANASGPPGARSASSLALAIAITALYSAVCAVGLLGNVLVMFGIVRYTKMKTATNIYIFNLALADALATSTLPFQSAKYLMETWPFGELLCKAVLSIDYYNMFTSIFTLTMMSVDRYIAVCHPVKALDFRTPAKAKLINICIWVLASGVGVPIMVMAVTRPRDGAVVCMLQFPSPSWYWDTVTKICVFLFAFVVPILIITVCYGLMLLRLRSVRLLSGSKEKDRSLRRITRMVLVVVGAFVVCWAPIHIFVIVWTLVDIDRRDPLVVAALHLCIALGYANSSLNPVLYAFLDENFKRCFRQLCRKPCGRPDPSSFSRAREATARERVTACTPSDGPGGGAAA

Mu-type opioid receptor = Mu-type opioid receptor (Homo sapiens, UniProt P35372); assay: Counterscreen for agonists of heterodimerization of the mu 1 (OPRM1) and delta 1 (OPRD1) opioid receptors: Luminescence-based cell-based high throughput dose response assay to identify agonists of OPRM1 homodimerization.; assay type: functional;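 further: U2OS cells expressing OPRM1 and beta-arrestin as split beta-galactosidase partners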
Chain of Mu-type opioid receptor (P35372 whole entry): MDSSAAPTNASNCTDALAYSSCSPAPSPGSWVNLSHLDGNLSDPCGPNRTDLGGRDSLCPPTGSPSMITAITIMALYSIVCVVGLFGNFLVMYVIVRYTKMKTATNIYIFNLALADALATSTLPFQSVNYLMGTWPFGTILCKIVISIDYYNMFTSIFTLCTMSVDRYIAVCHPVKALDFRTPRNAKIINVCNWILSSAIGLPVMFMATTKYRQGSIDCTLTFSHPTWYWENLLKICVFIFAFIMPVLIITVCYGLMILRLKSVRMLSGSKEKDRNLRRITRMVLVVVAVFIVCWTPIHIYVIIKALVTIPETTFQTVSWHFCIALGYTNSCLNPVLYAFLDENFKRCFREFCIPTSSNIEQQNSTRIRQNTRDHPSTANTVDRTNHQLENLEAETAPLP

[6] = molecular target: 5-hydroxytryptamine receptor 5A (Homo sapiens, UniProt P47898); assay: Counterscreen for agonists of OPRM1-OPRD1 heterodimerization: luminescence-based cell-based high throughput dose response assay to identify agonists of 5-hydroxytryptamine (serotonin) 5A receptor (HTR5A). [Related pubchem assays (depositor defined):AID504326, AID504355, AID504692, AID504904, AID504905]; assay type: functional
Chain of 5-hydroxytryptamine receptor 5A (P47898 whole entry): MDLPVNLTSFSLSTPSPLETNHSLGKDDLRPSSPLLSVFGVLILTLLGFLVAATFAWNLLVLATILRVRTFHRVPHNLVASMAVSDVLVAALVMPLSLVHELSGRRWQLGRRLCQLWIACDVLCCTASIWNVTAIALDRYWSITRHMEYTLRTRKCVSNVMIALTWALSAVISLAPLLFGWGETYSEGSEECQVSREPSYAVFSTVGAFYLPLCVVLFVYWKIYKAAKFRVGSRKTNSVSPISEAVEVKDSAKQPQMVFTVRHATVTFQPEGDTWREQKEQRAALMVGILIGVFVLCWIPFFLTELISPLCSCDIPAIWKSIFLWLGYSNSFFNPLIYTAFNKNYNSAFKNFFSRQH

[7] = molecular target: T6, Corticotropin-releasing factor receptor 2/Corticotropin-releasing factor-binding protein (Homo sapiens, UniProt P24387+Q13324); assay: Dose Response confirmation of uHTS hits for small molecule antagonists of the CRF-binding protein and CRF-R2 receptor complex.; assay type: functional; settings: read-out: IC50_Mean
T6 sequence (Q13324 whole entry): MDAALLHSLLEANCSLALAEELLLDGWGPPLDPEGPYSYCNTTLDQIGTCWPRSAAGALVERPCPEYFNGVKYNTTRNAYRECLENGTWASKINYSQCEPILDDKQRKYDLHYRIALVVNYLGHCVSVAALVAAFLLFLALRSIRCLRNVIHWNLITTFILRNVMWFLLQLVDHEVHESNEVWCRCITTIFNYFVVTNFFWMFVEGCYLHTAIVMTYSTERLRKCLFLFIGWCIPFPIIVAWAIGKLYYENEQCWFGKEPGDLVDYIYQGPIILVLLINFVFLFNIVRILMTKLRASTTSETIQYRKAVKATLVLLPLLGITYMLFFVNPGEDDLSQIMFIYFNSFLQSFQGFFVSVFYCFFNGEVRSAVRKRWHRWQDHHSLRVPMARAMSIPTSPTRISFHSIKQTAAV
T6 sequence (P24387 whole entry): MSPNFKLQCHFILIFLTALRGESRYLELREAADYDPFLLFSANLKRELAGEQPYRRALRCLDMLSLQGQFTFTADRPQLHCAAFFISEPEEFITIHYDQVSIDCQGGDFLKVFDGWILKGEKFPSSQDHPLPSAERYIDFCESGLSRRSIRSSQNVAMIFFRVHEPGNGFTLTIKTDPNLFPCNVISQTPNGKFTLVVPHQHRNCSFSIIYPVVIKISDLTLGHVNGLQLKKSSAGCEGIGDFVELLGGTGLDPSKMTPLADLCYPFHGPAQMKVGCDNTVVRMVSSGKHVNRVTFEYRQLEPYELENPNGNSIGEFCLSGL

[8] = molecular target: T6, Corticotropin-releasing factor receptor 2/Corticotropin-releasing factor-binding protein; assay: activators of CRF receptor 2 with binding protein – uHTS hits, confirmation (AID 602473); assay type: functional; settings: read-out: EC50_Mean
[9] = HEp-2 cell cytotoxicity, dose response, cytotoxicity control for RSV inhibitor project, HTS (AID 2410); assay type: functional; settings: human respiratory syncytial virus
[10] = molecular target: T7, Carboxy-terminal domain RNA polymerase II polypeptide A small phosphatase 1 (Homo sapiens, UniProt Q9GZU7); assay: inhibitors of CTDSP1, concentration-response testing, biochemical assay, absorbance-based, actives from ultra-high-throughput screening (AID 540297); assay type: functional
T7 sequence (Q9GZU7 whole entry): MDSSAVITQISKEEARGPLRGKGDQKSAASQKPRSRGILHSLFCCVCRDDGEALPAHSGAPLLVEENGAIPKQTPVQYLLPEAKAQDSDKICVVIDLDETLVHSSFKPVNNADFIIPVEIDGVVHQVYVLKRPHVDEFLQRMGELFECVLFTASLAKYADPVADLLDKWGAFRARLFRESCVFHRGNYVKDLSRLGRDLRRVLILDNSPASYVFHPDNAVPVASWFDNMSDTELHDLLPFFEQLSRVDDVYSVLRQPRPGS

[11] = molecular target: T8, Probable nicotinate-nucleotide adenylyltransferase (Staphylococcus aureus (strain N315), UniProt P65502); assay type: functional, Staphylococcus aureus subsp. aureus N315;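 on IC50 Mean: confirmatory dose-response retesting of NadD inhibitor hits first found in an ultra-high-throughput screen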
T8 sequence (P65502 whole entry): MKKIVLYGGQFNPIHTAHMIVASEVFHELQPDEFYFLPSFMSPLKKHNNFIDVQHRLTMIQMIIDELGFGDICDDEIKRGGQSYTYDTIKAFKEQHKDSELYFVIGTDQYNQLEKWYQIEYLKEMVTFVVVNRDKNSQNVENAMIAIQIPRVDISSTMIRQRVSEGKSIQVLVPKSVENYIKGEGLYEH

[12] = molecular target: T8, Probable nicotinate-nucleotide adenylyltransferase; assay type: functional, Staphylococcus aureus subsp. aureus N315; settings: read-out: IC50_Mean

## C/C(=N\NC(=O)c1ccc(Br)cc1)c1ccccc1
Caspase-3
  IC50: 4.06 µM (active)
[1]
  IC50: 4.62 µM (active)
[2]
  IC50: 6.55 µM (active)
[3]
  IC50: > 100 µM (inactive)
Cytochrome P450 3A4
  AC50: 15.8 µM (inconclusive)

## COc1ccc(-c2nn(-c3ccccc3C)cc2CNCc2cccnc2)cc1F
[4]
  EC50: 3.76 µM (active)
[5]
  EC50: > 92.5 µM (inactive)
Mu-type opioid receptor
  EC50: > 92.5 µM (inactive)
[6]
  EC50: > 92.5 µM (inactive)
[7]
  IC50: > 47.1 µM (inactive)
[8]
  EC50: > 53 µM (inactive)

## CC(C)CSC1=NSC2=NC(=O)/C(=C\c3cccs3)C(=N)N12
Caspase-3
  IC50: 26.8 µM (active)
[1]
  IC50: 24.2 µM (active)
[2]
  IC50: 14.9 µM (active)
[3]
  IC50: 18.5 µM (active)

## Oc1c(-c2cc(-c3ccco3)[nH]n2)ccc2ccccc12
Caspase-3
  IC50: 59.7 µM (active)
[1]
  IC50: 4.87 µM (active)
[2]
  IC50: 15 µM (active)
[3]
  IC50: 19.3 µM (active)

## O=C(COc1ccc2ccccc2c1)Nc1ccccc1C(=O)O
[9]
  CC50: 32.9 µM (active)
Caspase-3
  IC50: 15.2 µM (active)
[1]
  IC50: 13.4 µM (active)
[2]
  IC50: 25.5 µM (active)
[3]
  IC50: 43.4 µM (active)
cells
  IC50: 41.5 µM (active)

## O=C(O)Cc1sc(N/N=C\c2ccccc2)nc1-c1ccccc1
[10]
  IC50: 5.14 µM (active)
[11]
  IC50: 9.86 µM (active)
[12]
  IC50: 27.7 µM (active)
